The NIST ThermoML archive (doi:10.1016/j.tca.2005.08.012)

Assays:
[1] = xn = mol fraction of the nth substance listed; conditions: 101 kPa, Liquid, Vibrating tube method
[2] = 101.33 kPa, Liquid, Vibrating tube method

CCCCN(CCCC)CCCC [tributylamine] + c1ccccc1
mass density [kg/m3], [1]
Conditions	x1 = 0.0102	x1 = 0.0206	x1 = 0.0302	x1 = 0.0404	x1 = 0.0499	x1 = 0.0596	x1 = 0.0698	x1 = 0.0796	x1 = 0.0874
303.15 K	865.38	862.54	860.05	857.48	855.12	852.77	850.4	848.22	846.53
313.15 K	854.76	852.03	849.61	847.12	844.87	842.65	840.38	838.28	836.65

CCCCN [1-butanamine] + C1CCCCC1
mass density [kg/m3], [1]
Conditions	x1 = 0.0097	x1 = 0.0197	x1 = 0.0282	x1 = 0.038	x1 = 0.0471	x1 = 0.0581	x1 = 0.0674	x1 = 0.0724	x1 = 0.0873
303.15 K	768.39	767.7	767.1	766.38	765.76	764.98	764.35	764.08	763.14
313.15 K	758.82	758.12	757.54	756.91	756.3	755.61	754.91	754.62	753.62

CCCN [propan-1-amine] + C1CCCCC1
mass density [kg/m3], [1]
Conditions	x1 = 0.0076	x1 = 0.0169	x1 = 0.0282	x1 = 0.0365	x1 = 0.0483	x1 = 0.057	x1 = 0.0652	x1 = 0.0747	x1 = 0.0859
303.15 K	768.47	767.75	766.86	766.22	765.3	764.61	763.97	763.25	762.47
313.15 K	758.92	758.21	757.38	756.8	755.92	755.27	754.68	753.96	753.15

CCCCNCCCC [dibutylamine] + C1CCCCC1
mass density [kg/m3], [1]
Conditions	x1 = 0.0109	x1 = 0.0204	x1 = 0.0298	x1 = 0.0392	x1 = 0.0493	x1 = 0.0583	x1 = 0.0689	x1 = 0.0797	x1 = 0.0881
303.15 K	768.53	768.07	767.62	767.24	766.84	766.46	766.05	765.6	765.27
313.15 K	759.01	758.59	758.19	757.79	757.36	756.99	756.55	756.11	755.77

C1CCCCC1 [cyclohexane]
[2]
Conditions	mass density [kg/m3]
303.15 K	769.1
313.15 K	759.52

CCCCNCCCC [dibutylamine]
[2]
Conditions	mass density [kg/m3]
303.15 K	752.28
313.15 K	743.44

CCCNCCC [dipropylamine]
[2]
Conditions	mass density [kg/m3]
303.15 K	731.21
313.15 K	726.15

CCCCNCCCC [dibutylamine] + c1ccccc1
mass density [kg/m3], [1]
Conditions	x1 = 0.0108	x1 = 0.0201	x1 = 0.03	x1 = 0.039	x1 = 0.0487	x1 = 0.0593	x1 = 0.0689	x1 = 0.0797	x1 = 0.0892
303.15 K	865.75	863.58	861.33	859.32	857.18	854.88	852.86	850.62	848.69
313.15 K	855.17	853.13	851	849.09	847.05	844.85	842.92	840.79	838.92

CCCN(CCC)CCC [tripropylamine] + c1ccccc1
mass density [kg/m3], [1]
Conditions	x1 = 0.0104	x1 = 0.0206	x1 = 0.0307	x1 = 0.0402	x1 = 0.0497	x1 = 0.0596	x1 = 0.0693	x1 = 0.0788	x1 = 0.0889
303.15 K	865.5	862.82	860.21	857.87	855.54	853.15	850.88	848.69	846.42
313.15 K	854.85	852.24	849.71	847.43	845.18	842.85	840.66	838.55	836.35

CCN(CC)CC [triethylamine] + C1CCCCC1
mass density [kg/m3], [1]
Conditions	x1 = 0.0102	x1 = 0.0192	x1 = 0.0299	x1 = 0.0422	x1 = 0.0498	x1 = 0.0618	x1 = 0.0712	x1 = 0.0799	x1 = 0.0895	x1 = 0.0995
303.15 K	768.28	767.5	766.58	765.57	764.97	764.04	763.35	762.72	762.05	761.36
313.15 K	758.66	757.93	757.05	756.07	755.48	754.54	753.86	753.22	752.62	751.88

CCCCN(CCCC)CCCC [tributylamine]
[2]
Conditions	mass density [kg/m3]
303.15 K	770.21
313.15 K	763.11

c1ccccc1 [benzene]
[2]
Conditions	mass density [kg/m3]
303.15 K	868.3
313.15 K	857.59

CCN(CC)CC [triethylamine]
[2]
Conditions	mass density [kg/m3]
303.15 K	718.44
313.15 K	709.05
